How the values were obtained:
Type in all cases: in vivo
[1] = test system: barnyardgrass (Echinochloa crus-galli); assay: Test G Pre-Emergence Protocol; settings: Echinochloa crus-galli, pre-emergence, 312 h, evaluated after 13 days; for pest or weed control at 15.625 g/ha: 15.625 g ai/ha, read-out: Barnyard grass damage rating (100=total damage to plant; 0=no damage to plant); for pest or weed control at 62.5 g/ha: 62.5 g ai/ha, 100=total damage to plant, 0=no damage to plant, read-out: plant damage rating, Barnyardgrass; for pest or weed control at 250 g/ha: 250 g ai/ha, read-out: Barnyardgrass damage rating (100=total damage to plant; 0=no damage to plant)
Outline: (§1)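 Scores are visual damage ratings from 0 (no damage) to 100 (total plant kill), taken 13 days after treatment. Compound was sprayed one day post-sowing at 15.625, 62.5 or 250 g/ha in 50:50 acetone/water with 0.5% Tween 20.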

corn (Zea mays) [2] = assay: Test G Pre-Emergence Protocol; settings: Zea mays, pre-emergence, 312 h, evaluated after 13 days; for plant injury at 15.625 g/ha: 15.625 g ai/ha; for plant injury at 15.625 g/ha / plant injury at 250 g/ha: read-out: Corn damage rating (100=total damage to plant; 0=no damage to plant); for plant injury at 62.5 g/ha: 62.5 g ai/ha, 100=total damage to plant, 0=no damage to plant, read-out: plant damage rating, Corn; for plant injury at 250 g/ha: 250 g ai/ha
Outline: as §1

[3] = test system: giant foxtail (Setaria faberi); assay: Test G Pre-Emergence Protocol; settings: Setaria faberi, pre-emergence, 312 h, evaluated after 13 days; for pest or weed control at 15.625 g/ha: 15.625 g ai/ha; for pest or weed control at 15.625 g/ha / pest or weed control at 250 g/ha: read-out: Foxtail, Giant damage rating (100=total damage to plant; 0=no damage to plant); for pest or weed control at 62.5 g/ha: 62.5 g ai/ha, 100=total damage to plant, 0=no damage to plant, read-out: plant damage rating, Foxtail, Giant; for pest or weed control at 250 g/ha: 250 g ai/ha
Outline: as §1

[4] = test system: ivy-leaved morning glory (Ipomoea hederacea); assay: Test G Pre-Emergence Protocol; settings: Ipomoea, pre-emergence, 312 h, evaluated after 13 days; for pest or weed control at 15.625 g/ha: 15.625 g ai/ha, read-out: Morning-glory, Ivy-leaved damage rating (100=total damage to plant; 0=no damage to plant); for pest or weed control at 62.5 g/ha: 62.5 g ai/ha, 100=total damage to plant, 0=no damage to plant, read-out: plant damage rating, Morningglory, Ivy-leaved; for pest or weed control at 250 g/ha: 250 g ai/ha, read-out: Morningglory, Ivy-leaved damage rating (100=total damage to plant; 0=no damage to plant)
Outline: as §1

[5] = test system: redroot pigweed (Amaranthus retroflexus); assay: Test G Pre-Emergence Protocol; settings: Amaranthus retroflexus, pre-emergence, 312 h, evaluated after 13 days; for pest or weed control at 15.625 g/ha: 15.625 g ai/ha; for pest or weed control at 15.625 g/ha / pest or weed control at 250 g/ha: read-out: Pigweed, Redroot damage rating (100=total damage to plant; 0=no damage to plant); for pest or weed control at 62.5 g/ha: 62.5 g ai/ha, 100=total damage to plant, 0=no damage to plant, read-out: plant damage rating, Pigweed, Redroot; for pest or weed control at 250 g/ha: 250 g ai/ha
Outline: as §1

[6] = test system: velvetleaf (Abutilon theophrasti); assay: Test G Pre-Emergence Protocol; settings: Abutilon theophrasti, pre-emergence, 312 h, evaluated after 13 days; for pest or weed control at 15.625 g/ha: 15.625 g ai/ha; for pest or weed control at 15.625 g/ha / pest or weed control at 250 g/ha: read-out: Velvetleaf damage rating (100=total damage to plant; 0=no damage to plant); for pest or weed control at 62.5 g/ha: 62.5 g ai/ha, 100=total damage to plant, 0=no damage to plant, read-out: plant damage rating, Velvetleaf; for pest or weed control at 250 g/ha: 250 g ai/ha
Outline: as §1

[7] = test system: barnyardgrass (Echinochloa crus-galli); assay: Test G Post-Emergence Protocol; settings: Echinochloa crus-galli, post-emergence, 312 h; for pest or weed control at 15.625 g/ha: 15.625 g ai/ha, evaluated after 13 days (100=total damage to plant; 0=no damage to plant), read-out: Barnyardgrass damage rating; for pest or weed control at 62.5 g/ha: 62.5 g ai/ha, read-out: Barnyardgrass damage rating (100=total damage to plant; 0=no damage to plant); for pest or weed control at 62.5 g/ha / pest or weed control at 250 g/ha: evaluated after 13 days; for pest or weed control at 250 g/ha: 250 g ai/ha, read-out: damage to plant, Barnyardgrass (100=total damage to plant; 0=no damage to plant)
Outline: (§2)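 A glasshouse post-emergence test: 8-day-old plants sprayed at 15.625, 62.5 or 250 g/ha, then grown at 24/16 °C day/night with 14 h light and 65% humidity. Damage rated 13 days later, 0–100.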

corn (Zea mays) [8] = assay: Test G Post-Emergence Protocol; settings: Zea mays, post-emergence, 312 h; for plant injury at 15.625 g/ha: 15.625 g ai/ha, evaluated after 13 days (100=total damage to plant; 0=no damage to plant), read-out: Corn damage rating; for plant injury at 62.5 g/ha: 62.5 g ai/ha, read-out: Corn damage rating (100=total damage to plant; 0=no damage to plant); for plant injury at 62.5 g/ha / plant injury at 250 g/ha: evaluated after 13 days; for plant injury at 250 g/ha: 250 g ai/ha, read-out: damage to plant, Corn (100=total damage to plant; 0=no damage to plant)
Outline: as §2

[9] = test system: giant foxtail (Setaria faberi); assay: Test G Post-Emergence Protocol; settings: Setaria faberi, post-emergence, 312 h; for pest or weed control at 15.625 g/ha: 15.625 g ai/ha, evaluated after 13 days (100=total damage to plant; 0=no damage to plant), read-out: Foxtail, Giant damage rating; for pest or weed control at 62.5 g/ha: 62.5 g ai/ha, read-out: Foxtail, Giant damage rating (100=total damage to plant; 0=no damage to plant); for pest or weed control at 62.5 g/ha / pest or weed control at 250 g/ha: evaluated after 13 days; for pest or weed control at 250 g/ha: 250 g ai/ha, read-out: damage to plant, Foxtail, Giant (100=total damage to plant; 0=no damage to plant)
Outline: as §2

[10] = test system: ivy-leaved morning glory (Ipomoea hederacea); assay: Test G Post-Emergence Protocol; settings: Ipomoea, post-emergence, 312 h; for pest or weed control at 15.625 g/ha: 15.625 g ai/ha, evaluated after 13 days (100=total damage to plant; 0=no damage to plant), read-out: Morningglory, Ivy-leaved damage rating; for pest or weed control at 62.5 g/ha: 62.5 g ai/ha, read-out: Morningglory, Ivy-leaved damage rating (100=total damage to plant; 0=no damage to plant); for pest or weed control at 62.5 g/ha / pest or weed control at 250 g/ha: evaluated after 13 days; for pest or weed control at 250 g/ha: 250 g ai/ha, read-out: damage to plant, Morningglory, Ivy-leaved (100=total damage to plant; 0=no damage to plant)
Outline: as §2

[11] = test system: redroot pigweed (Amaranthus retroflexus); assay: Test G Post-Emergence Protocol; settings: Amaranthus retroflexus, post-emergence, 312 h; for pest or weed control at 15.625 g/ha: 15.625 g ai/ha, evaluated after 13 days (100=total damage to plant; 0=no damage to plant), read-out: Pigweed, Redroot damage rating; for pest or weed control at 62.5 g/ha: 62.5 g ai/ha, read-out: Pigweed, Redroot damage rating (100=total damage to plant; 0=no damage to plant); for pest or weed control at 62.5 g/ha / pest or weed control at 250 g/ha: evaluated after 13 days; for pest or weed control at 250 g/ha: 250 g ai/ha, read-out: damage to plant, Pigweed, Redroot (100=total damage to plant; 0=no damage to plant)
Outline: as §2

[12] = test system: velvetleaf (Abutilon theophrasti); assay: Test G Post-Emergence Protocol; settings: Abutilon theophrasti, post-emergence, 312 h; for pest or weed control at 15.625 g/ha: 15.625 g ai/ha, evaluated after 13 days (100=total damage to plant; 0=no damage to plant), read-out: Velvetleaf damage rating; for pest or weed control at 62.5 g/ha: 62.5 g ai/ha, read-out: Velvetleaf damage rating (100=total damage to plant; 0=no damage to plant); for pest or weed control at 62.5 g/ha / pest or weed control at 250 g/ha: evaluated after 13 days; for pest or weed control at 250 g/ha: 250 g ai/ha, read-out: damage to plant, Velvetleaf (100=total damage to plant; 0=no damage to plant)
Outline: as §2

Compound `Cc1ccc(NC(=O)[C@@H]2C(=O)N(C)C[C@H]2c2ccc(C(F)(F)F)cc2)nn1` (racemic) [Compound 1543] has a pest or weed control at 15.625 g/ha [1] of 0%, a pest or weed control at 62.5 g/ha [1] of 0% and a pest or weed control at 250 g/ha [1] of 0%. The plant injury at 15.625 g/ha (corn (Zea mays) [2]) was 0%, the plant injury at 62.5 g/ha (corn (Zea mays) [2]) was 0% and the plant injury at 250 g/ha (corn (Zea mays) [2]) was 0%. For the same compound, the pest or weed control at 15.625 g/ha [3] was 0%, the pest or weed control at 62.5 g/ha [3] was 0% and the pest or weed control at 250 g/ha [3] was 0%. The pest or weed control at 15.625 g/ha [4] was 0%, the pest or weed control at 62.5 g/ha [4] was 0% and the pest or weed control at 250 g/ha [4] was 0%. For the same compound, the pest or weed control at 15.625 g/ha [5] was 0%, the pest or weed control at 62.5 g/ha [5] was 0% and the pest or weed control at 250 g/ha [5] was 0%. For the same compound, the pest or weed control at 15.625 g/ha [6] was 0%, the pest or weed control at 62.5 g/ha [6] was 0% and the pest or weed control at 250 g/ha [6] was 0%. For the same compound, the pest or weed control at 15.625 g/ha [7] was 0%, the pest or weed control at 62.5 g/ha [7] was 0% and the pest or weed control at 250 g/ha [7] was 0%. For the same compound, the plant injury at 15.625 g/ha (corn (Zea mays) [8]) was 0%, the plant injury at 62.5 g/ha (corn (Zea mays) [8]) was 0% and the plant injury at 250 g/ha (corn (Zea mays) [8]) was 10%. For the same compound, the pest or weed control at 15.625 g/ha [9] was 0%, the pest or weed control at 62.5 g/ha [9] was 0% and the pest or weed control at 250 g/ha [9] was 20%. For the same compound, the pest or weed control at 15.625 g/ha [10] was 0%, the pest or weed control at 62.5 g/ha [10] was 0% and the pest or weed control at 250 g/ha [10] was 30%. The pest or weed control at 15.625 g/ha [11] was 0%, the pest or weed control at 62.5 g/ha [11] was 0% and the pest or weed control at 250 g/ha [11] was 40%. For the same compound, the pest or weed control at 15.625 g/ha [12] was 0%, the pest or weed control at 62.5 g/ha [12] was 0% and the pest or weed control at 250 g/ha [12] was 30%.
In the case of `CN1C[C@@H](c2ccc(C(F)(F)F)cc2)[C@H](C(=O)Nc2ccnc(Cl)n2)C1=O` (racemic) [Compound 1544], the pest or weed control at 15.625 g/ha [1] is reported as 0%, the pest or weed control at 62.5 g/ha [1] is reported as 0% and the pest or weed control at 250 g/ha [1] is reported as 0%. It also gave a plant injury at 15.625 g/ha (corn (Zea mays) [2]) of 0%, a plant injury at 62.5 g/ha (corn (Zea mays) [2]) of 0% and a plant injury at 250 g/ha (corn (Zea mays) [2]) of 0%. The pest or weed control at 15.625 g/ha [3] was 0%, the pest or weed control at 62.5 g/ha [3] was 0% and the pest or weed control at 250 g/ha [3] was 0%. For the same compound, the pest or weed control at 15.625 g/ha [4] was 0%, the pest or weed control at 62.5 g/ha [4] was 0% and the pest or weed control at 250 g/ha [4] was 0%. The pest or weed control at 15.625 g/ha [5] was 0%, the pest or weed control at 62.5 g/ha [5] was 0% and the pest or weed control at 250 g/ha [5] was 0%. It also gave a pest or weed control at 15.625 g/ha [6] of 0%, a pest or weed control at 62.5 g/ha [6] of 0% and a pest or weed control at 250 g/ha [6] of 0%. It also gave a pest or weed control at 15.625 g/ha [7] of 0%, a pest or weed control at 62.5 g/ha [7] of 0% and a pest or weed control at 250 g/ha [7] of 0%. It also gave a plant injury at 15.625 g/ha (corn (Zea mays) [8]) of 10%, a plant injury at 62.5 g/ha (corn (Zea mays) [8]) of 10% and a plant injury at 250 g/ha (corn (Zea mays) [8]) of 10%. It also gave a pest or weed control at 15.625 g/ha [9] of 0%, a pest or weed control at 62.5 g/ha [9] of 0% and a pest or weed control at 250 g/ha [9] of 0%. For the same compound, the pest or weed control at 15.625 g/ha [10] was 0%, the pest or weed control at 62.5 g/ha [10] was 0% and the pest or weed control at 250 g/ha [10] was 0%. It also gave a pest or weed control at 15.625 g/ha [11] of 0%, a pest or weed control at 62.5 g/ha [11] of 0% and a pest or weed control at 250 g/ha [11] of 0%. For the same compound, the pest or weed control at 15.625 g/ha [12] was 0%, the pest or weed control at 62.5 g/ha [12] was 0% and the pest or weed control at 250 g/ha [12] was 0%.

Source: patent publication US12077503B2, “Substituted cyclic amides and their use as herbicides” (FMC CORPORATION, priority 2015, dated 2024)
